Test results reported in EP0873990A1, “BENZOIC ACID COMPOUNDS AND MEDICINAL USE THEREOF” (YOSHITOMI PHARMACEUTICAL INDUSTRIES, LTD., priority 1995, dated 1997).
Structures can show the parent of a compound that is named as a salt. Where two headings read alike, the source gives them in different places.

Tests used:
[1] = molecular target: T1, 5-HT4 receptor (Cavia porcellus, UniProt O70528); test: biochemical; type: binding, guinea pig
T1 construct: crude synapse membrane sample was prepared from guinea pig striatum; from tissue; host or cells: guinea pig striatum, crude synaptic membranes
Procedure: Specifically, crude synapse membrane sample was prepared from guinea pig striatum, suspended in 50 mM HEPES buffer (pH 7.4) and used for testing. The test compound having several different concentrations and [3H]GR113808 (final concentration 0.1 nM) were added to this suspension and allowed to react at 37°C. Thirty minutes later, the reaction mixture was filtered by suction with cell harvester. The filter was washed with 50 mM HEPES buffer, and the radioactivity on the filter was counted by liquid scintillation counter. The non-specific binding was determined in the presence of 1 µM GR113808. The concentration of the test compound necessary for 50% inhibition (IC50) was determined from a graph and converted to a Ki value.

[2] = molecular target: T2, 5-HT3 receptor (Rattus norvegicus, UniProt P35563); test: 5-HT3 receptor binding test ([3H]Granisetron, crude synapse membrane from cerebral cortex); settings: for Ki: IC50 converted to Ki, read-out: Affinity for receptor (Ki value, nM) 5-HT3
T2 construct: crude synapse membrane sample was prepared from rat cerebral cortex; from tissue; host or cells: rat cerebral cortex, crude synaptic membranes
T2 sequence (P35563 24-483): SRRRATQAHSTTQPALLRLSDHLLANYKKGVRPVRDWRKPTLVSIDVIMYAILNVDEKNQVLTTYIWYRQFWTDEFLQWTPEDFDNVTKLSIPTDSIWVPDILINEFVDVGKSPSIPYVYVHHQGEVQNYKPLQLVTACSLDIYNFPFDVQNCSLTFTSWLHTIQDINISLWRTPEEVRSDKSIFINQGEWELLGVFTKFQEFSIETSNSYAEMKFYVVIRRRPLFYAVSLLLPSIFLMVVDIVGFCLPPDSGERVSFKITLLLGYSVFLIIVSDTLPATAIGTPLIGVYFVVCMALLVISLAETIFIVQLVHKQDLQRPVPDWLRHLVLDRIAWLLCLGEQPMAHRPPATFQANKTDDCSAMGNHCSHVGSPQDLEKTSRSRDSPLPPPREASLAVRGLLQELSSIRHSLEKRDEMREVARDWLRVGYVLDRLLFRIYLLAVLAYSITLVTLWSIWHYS
Procedure: 148, pp. 297-299 (1988)], a specific 5-HT3 receptor binding test was run using, as a tracer ligand, endo-1-methyl-N-(9-methyl-9-azabicyclo[3.3.1]non-3-yl)-1H-indazole-3-carboxamide substituted by tritium (hereinafter to be referred to as [3H]Granisetron). Specifically, crude synapse membrane sample was prepared from rat cerebral cortex, suspended in 50 mM HEPES buffer (pH 7.4) and used for testing. The test compound having several different concentrations and [3H]Granisetron (final concentration 1.0 nM) were added to this suspension and allowed to react at 25°C. Thirty minutes later, the reaction mixture was filtered by suction with cell harvester. The filter was washed with 50 mM Tris buffer (pH 7.4), and the radioactivity on the filter was counted using liquid scintillation counter or β-plate. The non-specific binding was determined in the presence of 1 µM Tropisetron. The concentration of the test compound necessary for 50% inhibition (IC50) was determined from a graph and converted to a Ki value.

[3] = tested on: Male ddY mice; test: Stimulation of defecation in mouse; type: in vivo; settings: for promotion (%) of number / promotion (%) of wet weight: 2 hours, versus vehicle; for number (of feces) / wet weight (mg) (of feces): feces excreted for 2 hours after oral administration, n=20
Procedure: Male ddY mice were placed in partition box, and the number and wet weight of feces excreted for 2 hours from immediately after oral administration of the compound of Example 57 were measured.

[4] = tested on: Male Hartley guinea pigs; test: Promotion of colonic transit in guinea pig; type: in vivo; settings: for ratio of colonic transit (%): colon removed one hour later; for promotion (%) of colonic transit: versus vehicle
Procedure: Male Hartley guinea pigs were subjected to laparotomy under ether anesthesia, and a polyethylene tube was inserted into the beginning of colon. The other end was passed under the skin to be exposed from the neck and fixed there. At day 5 postoperation, Evans blue solution was injected into the colon through the polyethylene tube. One hour later, the colon was removed, and the range of the Evans blue solution was measured, which was calculated relative to the entire length of the colon and expressed as transit ratio. The compound of Example 57 was orally administered one hour before injection of the Evans blue solution.

[5] = tested on: male Wistar rats; test: Promotion of gastric emptying in rats; type: in vivo, rat; settings: for number of pellets (remaining in stomach): stomach removed one hour later; for promotion (%) of gastric emptying: from comparison with remaining pellets in vehicle group
Procedure: Barium pellets (ca. 1 mm diameter) coated with polystyrene was intragastrically administered to male Wistar rats. One hour later, stomach was removed, and the remaining pellets were counted. The compound of Example 57 was orally administered one hour before administration of the pellets. The promotion ratio was calculated from the comparison with the number of remaining pellets in the group administered with vehicle.

[6] = [3H]GR113808 0.1 nM, guinea pig striatum membranes, 37°C, 30 min, IC50 converted to Ki, read-out: Affinity for receptor (Ki value, nM) 5-HT4
[7] = values marked * are IC50, [3H]Granisetron 1.0 nM, rat cerebral cortex membranes, 25°C, 30 min, read-out: Affinity for receptor 5-HT3 (∗ shows IC50)
[8] = [3H]Granisetron 1.0 nM, rat cerebral cortex membranes, 25°C, 30 min

T1 sequence (O70528 whole entry): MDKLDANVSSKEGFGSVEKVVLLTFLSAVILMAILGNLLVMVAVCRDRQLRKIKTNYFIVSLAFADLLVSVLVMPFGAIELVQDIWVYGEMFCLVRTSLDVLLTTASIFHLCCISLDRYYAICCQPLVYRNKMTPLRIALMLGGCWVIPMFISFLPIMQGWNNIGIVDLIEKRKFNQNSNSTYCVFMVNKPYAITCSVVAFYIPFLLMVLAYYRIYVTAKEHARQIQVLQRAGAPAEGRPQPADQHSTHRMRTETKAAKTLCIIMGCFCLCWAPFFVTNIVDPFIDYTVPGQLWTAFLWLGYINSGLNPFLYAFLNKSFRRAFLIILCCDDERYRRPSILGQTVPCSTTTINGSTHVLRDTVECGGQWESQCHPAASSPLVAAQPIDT

`COc1cc(N)c(Cl)cc1C(=O)NCC1CCN(CCCCCNCC2CCCCC2)CC1` [Example 11, 4-amino-5-chloro-N-((1-(5-(cyclohexylmethylamino)pentyl)piperidin-4-yl)methyl)-2-methoxybenzamide] gave a Ki [1, 6] of 0.51 nM and an IC50 [2, 7] greater than 1000 nM.
Work on `COc1cc(N)c(Cl)cc1C(=O)NCC1CCN(CCCCCNCc2ccc3ccccc3c2)CC1` [Example 14, 4-amino-5-chloro-2-methoxy-N-((1-(5-(2-naphthylmethylamino)pentyl)piperidin-4-yl)methyl)benzamide] yielded a Ki [1, 6] of 0.97 nM and an IC50 [2, 7] greater than 1000 nM.
Work on `CCN(CCCCCN1CCC(CNC(=O)c2cc(Cl)c(N)cc2OC)CC1)Cc1ccc(F)cc1` [Example 25, 4-amino-5-chloro-N-((1-(5-(N-ethyl-N-(4-fluorobenzyl)amino)pentyl)piperidin-4-yl)methyl)-2-methoxybenzamide] yielded a Ki [1, 6] of 0.94 nM and an IC50 [2, 7] greater than 1000 nM.
With `CCCN(CCCCCN1CCC(CNC(=O)c2cc(Cl)c(N)cc2OC)CC1)Cc1ccccc1` [Example 33, 4-amino-5-chloro-2-methoxy-N-((1-(5-(N-n-propyl-N-benzylamino)pentyl)piperidin-4-yl)methyl)benzamide] the Ki [1, 6] was 0.84 nM and the IC50 [2, 7] was greater than 1000 nM.
For `CCN(CCCCN1CCC(CNC(=O)c2cc(Cl)c(N)cc2OC)CC1)Cc1ccc(Cl)c(Cl)c1` [Example 42, 4-amino-5-chloro-N-((1-(4-(N-(3,4-dichlorobenzyl)-N-ethylamino)butyl)piperidin-4-yl)methyl)-2-methoxybenzamide], the Ki [1, 6] was 0.62 nM and the IC50 [2, 7] was greater than 1000 nM.
`CCN(CCCCCCN1CCC(CNC(=O)c2cc(Cl)c(N)cc2OC)CC1)Cc1ccccc1` [Example 44, 4-amino-5-chloro-N-((1-(6-(N-ethyl-N-benzylamino)hexyl)piperidin-4-yl)methyl)-2-methoxy benzamide] gave a Ki [1, 6] of 0.67 nM and an IC50 [2, 7] greater than 1000 nM.
In the case of `CCN(CCCCCCN1CCC(CNC(=O)c2cc(Cl)c(N)cc2OC)CC1)Cc1ccc([N+](=O)[O-])cc1` [Example 47, 4-amino-5-chloro-N-((1-(6-(N-ethyl-N-(4-nitrobenzyl)amino)hexyl)piperidin-4-yl)methyl)-2-methoxybenzamide], the Ki [1, 6] is reported as 2.7 nM and the IC50 [2, 7] is reported as greater than 1000 nM.
`COc1cc(N)c(Cl)cc1C(=O)NCC1CCN(CCCCCOCc2ccccc2)CC1` [Example 53, 4-amino-N-((1-(5-benzyloxypentyl)piperidin-4-yl)methyl)-5-chloro-2-methoxybenzamide] was tested, and the Ki [1, 6] was 3.5 nM and the Ki [2, 8] was 370 nM.
`COc1cc(N)c(Cl)cc1C(=O)NCC1CCN(CCCCCSCc2ccccc2)CC1` [Example 54, 4-amino-N-((1-(5-benzylthiopentyl)piperidin-4-yl)methyl)-5-chloro-2-methoxybenzamide] gave a Ki [1, 6] of 1.6 nM and a Ki [2, 8] of 340 nM.
In the case of `COc1cc(N)c(Cl)cc1C(=O)NCC1CCN(CCCCCC(=O)c2ccccc2)CC1` [Example 57, 4-amino-5-chloro-2-methoxy-N-((1-(6-oxo-6-phenylhexyl)piperidin-4-yl)methyl)benzamide], the Ki [1, 6] is reported as 2.4 nM, the IC50 [2, 7] is reported as greater than 1000 nM and the “promotion (%) of number” value ([3]; 0.1 mg/kg p.o.) is reported as 70%. For the same compound, the “promotion (%) of wet weight” value ([3]; 0.1 mg/kg p.o.) was 69%, the “number (of feces)” value ([3]; 0.1 mg/kg p.o.) was 3.4±0.3 and the “wet weight (mg) (of feces)” value ([3]; 0.1 mg/kg p.o.) was 59.2 ± 6.5 mg. For the same compound, the “promotion (%) of number” value ([3]; 0.3 mg/kg p.o.) was 135%, the “promotion (%) of wet weight” value ([3]; 0.3 mg/kg p.o.) was 136% and the “number (of feces)” value ([3]; 0.3 mg/kg p.o., P<0.01) was 4.7±0.5. The “wet weight (mg) (of feces)” value ([3]; 0.3 mg/kg p.o., P<0.01) was 82.7 ± 11.5 mg, the “promotion (%) of number” value ([3]; 1 mg/kg p.o.) was 130% and the “promotion (%) of wet weight” value ([3]; 1 mg/kg p.o.) was 120%. For the same compound, the “number (of feces)” value ([3]; 1 mg/kg p.o., P<0.01) was 4.6±0.6, the “wet weight (mg) (of feces)” value ([3]; 1 mg/kg p.o., P<0.01) was 77.2 ± 11.9 mg and the “promotion (%) of number” value ([3]; 3 mg/kg p.o.) was 135%. The “promotion (%) of wet weight” value ([3]; 3 mg/kg p.o.) was 132%, the “number (of feces)” value ([3]; 3 mg/kg p.o., P<0.01) was 4.7±0.5 and the “wet weight (mg) (of feces)” value ([3]; 3 mg/kg p.o., P<0.01) was 81.6 ± 10.4 mg. The “ratio of colonic transit (%)” value ([4]; 0.1 mg/kg p.o. one hour before Evans blue injection, n=16) was 54.5±8.0%, the “promotion (%) of colonic transit” value ([4]; 0.1 mg/kg p.o.) was 23% and the “ratio of colonic transit (%)” value ([4]; 0.3 mg/kg p.o. one hour before Evans blue injection, n=16) was 54.7±5.9%. For the same compound, the “promotion (%) of colonic transit” value ([4]; 0.3 mg/kg p.o.) was 24%, the “ratio of colonic transit (%)” value ([4]; 1 mg/kg p.o. one hour before Evans blue injection, n=15, P<0.05) was 71.8±6.9 % and the “promotion (%) of colonic transit” value ([4]; 1 mg/kg p.o.) was 62%. The “ratio of colonic transit (%)” value ([4]; 3 mg/kg p.o. one hour before Evans blue injection, n=14, P<0.05) was 73.2±6.3 %, the “promotion (%) of colonic transit” value ([4]; 3 mg/kg p.o.) was 66% and the “number of pellets (remaining in stomach)” value ([5]; 0.3 mg/kg p.o. one hour before barium pellets) was 28.2 ±1.3. The “promotion (%) of gastric emptying” value ([5]; 0.3 mg/kg p.o.) was 0%, the “number of pellets (remaining in stomach)” value ([5]; 1 mg/kg p.o. one hour before barium pellets) was 24.3 ±2.5 and the “promotion (%) of gastric emptying” value ([5]; 1 mg/kg p.o.) was 14%. The “number of pellets (remaining in stomach)” value ([5]; 3 mg/kg p.o. one hour before barium pellets, P<0.05) was 19.0 ±2.6, the “promotion (%) of gastric emptying” value ([5]; 3 mg/kg p.o.) was 32% and the “number of pellets (remaining in stomach)” value ([5]; 10 mg/kg p.o. one hour before barium pellets, P<0.01) was 13.3 ±3.0. For the same compound, the “promotion (%) of gastric emptying” value ([5]; 10 mg/kg p.o.) was 53%.
`COc1cc(N)c(Cl)cc1C(=O)NCC1CCN(CCCCCCC(=O)c2ccccc2)CC1` [Example 58, 4-amino-5-chloro-2-methoxy-N-((1-(7-oxo-7-phenylheptyl)piperidin-4-yl)methyl)benzamide] was tested, and the Ki [1, 6] was 1.5 nM and the IC50 [2, 7] was greater than 1000 nM.
Work on `COc1ccc(C(=O)CCCCCN2CCC(CNC(=O)c3cc(Cl)c(N)cc3OC)CC2)cc1Cl` [Example 73, 4-amino-5-chloro-N-((1-(6-(3-chloro-4-methoxyphenyl)-6-oxohexyl)piperidin-4-yl)methyl)-2-methoxybenzamide] yielded a Ki [1, 6] of 1.8 nM and an IC50 [2, 7] greater than 1000 nM.
`COc1ccc(C(=O)CCCCCN2CCC(CNC(=O)c3cc(Cl)c(N)cc3OC)CC2)cc1F` [Example 74, 4-amino-5-chloro-N-((1-(6-(3-fluoro-4-methoxyphenyl)-6-oxohexyl)piperidin-4-yl)methyl)-2-methoxybenzamide] was tested, and the Ki [1, 6] was 5.1 nM and the IC50 [2, 7] was greater than 1000 nM.
`COc1cc(N)c(Cl)cc1C(=O)NCC1CCN(CCCCCC(=O)c2ccc(O)cc2)CC1` [Example 75, 4-amino-5-chloro-N-((1-(6-(4-hydroxyphenyl)-6-oxohexyl)piperidin-4-yl)methyl)-2-methoxybenzamide] showed a Ki [1, 6] of 1.5 nM and an IC50 [2, 7] greater than 1000 nM.
In the case of `COc1cc(N)c(Cl)cc1C(=O)NCC1CCN(CCCCCC(=O)c2cn(C)c3ccccc23)CC1` [Example 77, 4-amino-5-chloro-2-methoxy-N-((1-(6-(1-methyl-1H-indol-3-yl)-6-oxohexyl)piperidin-4-yl)methyl)benzamide], the Ki [1, 6] is reported as 0.34 nM and the IC50 [2, 7] is reported as greater than 1000 nM.
Compound `COc1cc(N)c(Cl)cc1C(=O)NCC1CCN(CCCCCC(=O)c2cccc3ccccc23)CC1` [Example 81, 4-amino-5-chloro-N-((1-(6-(1-naphthyl)-6-oxohexyl)piperidin-4-yl)methyl)-2-methoxybenzamide hydrochloride] has a Ki [1, 6] of 0.5 nM and an IC50 [2, 7] greater than 1000 nM.
`COc1cc(N)c(Cl)cc1C(=O)NCC1CCN(CCCCCS(=O)(=O)c2ccccc2)CC1` [Example 84, 4-amino-5-chloro-2-methoxy-N-((1-(5-phenylsulfonylpentyl)piperidin-4-yl)methyl)benzamide hydrochloride] showed a Ki [1, 6] of 1.4 nM and an IC50 [2, 7] greater than 1000 nM.
`CCn1cc(C(=O)CCCCCN2CCC(CNC(=O)c3cc(Cl)c(N)cc3OC)CC2)c2ccccc21` [Example 93, 4-amino-5-chloro-2-methoxy-N-((1-(6-(1-ethyl-1H-indol-3-yl)-6-oxohexyl)piperidin-4-yl)methyl)benzamide] gave a Ki [1] of 0.47 nM and an IC50 [2] greater than 1000 nM.
